Here are results for five molecules from US10391070B2, “Compositions and methods for treating neurological diseases or injury” (MUSC FOUNDATION FOR RESEARCH DEVELOPMENT, priority 2012, dated 2019).

Where two headings read alike, the source gives them in different places.

One data set deals with HT22 cells. Description: In vitro neurotoxicity without glutamate (MTS cell viability). In kind it is cell-based, mouse. Particulars: for Safety Index TC50/PC50: HT22 cells.
Data set [1] in a line: Antioxidant activity assay (DPPH free radical scavenging). Particulars: 20 μM, 100 μM DPPH in methanol. The procedure:
Antioxidant activity of various reagents was assayed as previously described by monitoring the disappearance of the optical absorbance of the stable-free radical DPPH on reaction with test compounds (Blois, 1958). The rate of the reaction represents the antioxidant potency of test agents. The known free radical scavenger Trolox and ascorbic acid were used as positive controls. Briefly, 10 μL of test reagents at final concentrations of 20 μM were added to 200 μL of 100 μM DPPH in methanol. Optical absorbance of DPPH at 517 nm was immediately monitored for 10 min.
On the technique in general: The DPPH test is a chemical assay of radical scavenging.

The subject of another data set is NQO-1. Nature of the data set: qRT-PCR of antioxidant response gene NQO-1. The class given is cell-based, mouse. Particulars: HT22, 10 mM glutamate 16 hrs, relative to glutamate only. As to the method: HT22 cells were seeded onto cell culture treated 6-well plates at 3.0×10^5 cells per well in 2 mL of medium and maintained at 37° C. in 5% CO2 overnight prior to the initiation of experimental treatments. Cells were subsequently treated with 1 mL of medium containing glutamate (monosodium glutamate, Sigma-Aldritch, 1 M stock concentration in media, to achieve a final concentration of 10 mM) plus inhibitors (stock in DMSO) and maintained at 37° C. in 5% CO2. After 16 hrs, the media was collected and the cells harvested by trypsanization. After centrifugation, pelleted cells were washed with cold Hanks' Balanced Salt Solution (HBSS Ca^2+/Mg^2+ Free; Invitrogen; KCl 5.33 mM, KH2PO4 0.441 mM, NaHCO3 4.17 mM, NaCl 137.93 mM, Na2HPO4 0.338 mM, D-Glucose 5.56 mM), qRT-PCR was used to detect HO-1, NQO-1, and PGAM5 mRNAs in the HT22 cells. […] Therefore β2-microglobulin was used as a reference gene (Barrionuevo and Burggren, 1999). HT22 cells were cultured as described for 16 hrs. Total RNAs were extracted using the RNEasy kit (Qiagen), and transcripts of interest were amplified by PCR using the 1-step Syber Green qRT-PCR kit (Quanta) and the following specific primers (Harvard PrimerBank; Integrated DNA Technologies): HO-1, 5′-[…]-3′ (SEQ ID NO:1) and 5′-[…]-3′ (SEQ ID NO:2); PGAM5, 5′-[…]-3′ (SEQ ID NO:3) and 5′-[…]-3′ (SEQ ID NO:4); NQO-1, 5′-[…]-3′ (SEQ ID NO:5) and 5′-[…]-3′ (SEQ ID NO:6); and β2-microglobulin, 5′-[…]-3′ (SEQ ID NO:7) and 5′-[…]-3′ (SEQ ID NO:8). Linearity of the primers was verified before use, and fold changes were calculated as previously described using the Livak method (Barrionuevo and Burggren, 1999).
Background: In qPCR the cycle at which signal appears reflects the starting amount.

The next data set deals with PTZ-induced seizures. Description: PTZ-induced seizure (swim activity) model in zebrafish larvae. The class given is in vivo, zebrafish (Danio rerio).
The mark [2] stands for this setting: HT22 cells without glutamate, 24 hrs, MTS, concentration producing 50% toxicity, read-out: Toxicity TC50.

`C#CCNC1=CC(=O)c2ccccc2C1=O` [Compound 2h, 2-(prop-2-yn-1-ylamino)naphthalene-1,4-dione]: the “Safety Index TC50/PC50” value in the data set on HT22 cells is listed as 442. In addition, the CC50 in the data set on HT22 cells (setting [2]) came out at 53 µM.

In the case of `O=C1C=C(NCc2ccccc2)C(=O)c2ccccc21` [Compound 2j, 2-(benzylamino)naphthalene-1,4-dione], the “Safety Index TC50/PC50” value in the data set on HT22 cells is 1,136. In the data set on HT22 cells (setting [2]), the CC50 was above 100 µM. Also, the “free radical scavenging capacity (DPPH absorbance)” value (shortened to “free radical scavenging capacity”) in data set [1] is reported as “did not show direct antioxidant capacity”. Also, the NQO-1 gene expression entry in the data set with NQO-1 was “did not affect NQO-1 expression”.

`O=C1C=C(NCc2cccc(Cl)c2)C(=O)c2ccccc21` [Compound 2q, 2-((3-chlorobenzyl)amino)naphthalene-1,4-dione]: the “Safety Index TC50/PC50” value in the data set on HT22 cells was 3,226. Also, in the data set on HT22 cells (setting [2]), the CC50 is above 100 µM. For the same molecule, in the data set on PTZ-induced seizures (7 dpf zebrafish, 1 h pretreatment, 15 mM PTZ, 2j 10 μM, 2h 20 μM, 2q 20 μM, 3n 8 μM), the “fold reduction of PTZ-induced swim activity (distance traveled)” value was “more than two fold”. Further, the “free radical scavenging capacity” value in data set [1] is given as “did not show direct antioxidant capacity”. The NQO-1 gene expression entry in the data set with NQO-1 is listed as “did not affect NQO-1 expression”.

Consider `CC1=CC(=O)c2ccccc2C1=O` [VK3, menadione, reference compound], for which the “Safety Index TC50/PC50” value in the data set with HT22 cells was found to be 24. Besides, the CC50 with HT22 cells (setting [2]) came out at 19 µM. Also, the “fold reduction of distance traveled from PTZ levels” value with PTZ-induced seizures (7 dpf zebrafish, 1.5 μM) was 0.5 fold. Besides, in the data set on PTZ-induced seizures (7 dpf zebrafish, 3 μM), the “fold reduction of PTZ-induced swim behavior” value is recorded as 2 fold. Further, the “fold reduction of distance traveled after PTZ treatment” value in the data set with PTZ-induced seizures (7 dpf zebrafish, 6 μM, 1 h pretreatment, 15 mM PTZ) is “more than 4 fold”. Moreover, the “concentrations reducing seizure activity” value in the data set with PTZ-induced seizures (PTZ-treated 6 dpf zebrafish, dose dependent) lay in the range of 1.5 to 6 µM.

Take menaquinones [VK2, reference compound]: in the data set with HT22 cells, the CC50 is above 100 µM, the cellular toxicity entry was “neither exhibited any signs of cellular toxicity” and the “Safety Index TC50/PC50” value came out at 231. Also, the reduction of seizures entry in the data set with PTZ-induced seizures (PTZ-treated 6 dpf zebrafish, up to 100 mM) is given as “neither were found to reduce seizures”. In data set [1], the “free radical scavenging capacity” value is “did not show direct antioxidant capacity”. Further, the NQO-1 gene expression result in the data set on NQO-1 is listed as “did not affect NQO-1 expression”.
